Assay [1] can be described thus: T. cruzi growth inhibition in host cells, dose response, cell-based, plate reader, dry powder, set 2 (AID 652275). The class given is functional.
The target in assay [2] is T1, DNA repair and recombination protein RAD54-like (Homo sapiens, UniProt Q92698).
T1 sequence (Q92698 whole entry): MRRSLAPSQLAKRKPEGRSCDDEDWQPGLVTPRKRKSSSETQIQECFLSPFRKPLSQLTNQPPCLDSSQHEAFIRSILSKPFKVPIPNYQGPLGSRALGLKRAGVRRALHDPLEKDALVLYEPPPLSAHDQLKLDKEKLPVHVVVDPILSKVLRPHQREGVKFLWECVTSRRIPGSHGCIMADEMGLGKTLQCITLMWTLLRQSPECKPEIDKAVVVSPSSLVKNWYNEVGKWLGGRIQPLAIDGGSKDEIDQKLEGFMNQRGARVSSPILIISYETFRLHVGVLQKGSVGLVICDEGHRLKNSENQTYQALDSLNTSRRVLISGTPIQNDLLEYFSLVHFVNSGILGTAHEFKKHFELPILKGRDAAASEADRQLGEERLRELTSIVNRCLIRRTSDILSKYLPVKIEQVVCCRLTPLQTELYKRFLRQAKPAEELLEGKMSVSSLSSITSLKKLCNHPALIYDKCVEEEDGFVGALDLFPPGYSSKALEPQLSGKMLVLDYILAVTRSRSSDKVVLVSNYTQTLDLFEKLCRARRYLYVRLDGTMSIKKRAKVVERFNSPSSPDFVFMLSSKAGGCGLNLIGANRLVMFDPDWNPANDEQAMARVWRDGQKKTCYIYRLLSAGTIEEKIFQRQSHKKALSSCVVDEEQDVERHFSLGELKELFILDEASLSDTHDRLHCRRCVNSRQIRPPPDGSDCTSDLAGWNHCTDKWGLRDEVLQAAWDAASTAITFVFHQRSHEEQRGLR
Briefly: inhibitors of human RAD54 branch migration, confirmation, biochemical, fluorescence, cherry-picked samples, dose series (AID 651657). The class given is functional.

For assay [3], the target named is T2, Histone-lysine N-methyltransferase NSD2 (Homo sapiens, UniProt O96028).
T2 sequence (O96028 whole entry): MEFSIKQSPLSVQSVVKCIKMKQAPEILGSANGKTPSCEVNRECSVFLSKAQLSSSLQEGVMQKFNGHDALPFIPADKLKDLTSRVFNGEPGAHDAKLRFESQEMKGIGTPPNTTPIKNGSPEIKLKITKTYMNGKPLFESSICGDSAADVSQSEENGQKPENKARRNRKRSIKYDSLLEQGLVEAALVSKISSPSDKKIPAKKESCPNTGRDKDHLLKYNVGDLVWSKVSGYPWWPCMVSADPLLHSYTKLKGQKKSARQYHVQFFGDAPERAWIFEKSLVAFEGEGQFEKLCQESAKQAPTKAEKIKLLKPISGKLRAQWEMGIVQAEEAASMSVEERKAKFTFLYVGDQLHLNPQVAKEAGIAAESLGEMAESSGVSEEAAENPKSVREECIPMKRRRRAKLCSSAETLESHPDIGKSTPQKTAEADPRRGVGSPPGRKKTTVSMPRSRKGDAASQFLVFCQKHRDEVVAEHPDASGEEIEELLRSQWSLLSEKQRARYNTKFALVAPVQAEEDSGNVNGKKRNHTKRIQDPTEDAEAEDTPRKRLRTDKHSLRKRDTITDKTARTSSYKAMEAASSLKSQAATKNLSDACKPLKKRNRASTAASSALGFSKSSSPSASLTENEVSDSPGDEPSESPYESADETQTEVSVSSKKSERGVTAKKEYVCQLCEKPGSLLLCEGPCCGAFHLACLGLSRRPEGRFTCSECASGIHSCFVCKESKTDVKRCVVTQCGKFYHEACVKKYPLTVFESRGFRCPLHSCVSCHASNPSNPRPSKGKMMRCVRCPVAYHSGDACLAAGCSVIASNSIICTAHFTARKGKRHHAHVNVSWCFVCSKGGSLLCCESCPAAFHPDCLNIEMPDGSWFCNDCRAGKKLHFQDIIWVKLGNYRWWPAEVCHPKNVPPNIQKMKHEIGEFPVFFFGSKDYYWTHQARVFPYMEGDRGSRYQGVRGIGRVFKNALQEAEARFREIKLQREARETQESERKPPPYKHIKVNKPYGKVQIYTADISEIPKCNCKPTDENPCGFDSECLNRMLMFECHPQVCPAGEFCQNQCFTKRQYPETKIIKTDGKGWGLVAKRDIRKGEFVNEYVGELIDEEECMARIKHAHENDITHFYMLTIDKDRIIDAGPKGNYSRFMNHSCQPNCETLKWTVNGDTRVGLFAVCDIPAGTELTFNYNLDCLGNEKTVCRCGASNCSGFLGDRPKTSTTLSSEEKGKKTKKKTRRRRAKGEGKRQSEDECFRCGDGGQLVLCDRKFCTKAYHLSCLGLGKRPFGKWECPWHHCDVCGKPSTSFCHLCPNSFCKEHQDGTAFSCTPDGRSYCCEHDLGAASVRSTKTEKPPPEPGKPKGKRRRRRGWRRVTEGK
The class given is biochemical.

A short description of assay [4]: A549 cell cytotoxicity, dose response, cytotoxicity control, plate reader, cherry-pick, antagonist series (AID 743412). The format is functional, cell-based.
Assay [5] can be described thus: HepG2 cell cytotoxicity, dose response, cytotoxicity control, plate reader, cherry-pick, antagonist series (AID 743416). The format is functional, cell-based.
A short description of assay [6]: LGR2 antagonists, dose response, cell-based, HEK293, CRE-luciferase reporter, cherry pick, set 2 (AID 743343).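 Further: transfected cells were stimulated with diluted bursicon conditioned medium after compound addition.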 The format is functional. (In general: A reporter such as luciferase makes a cellular process visible.)
The nature of assay [7]: MC4R antagonists, dose response, counter-screen for LGR2 antagonist project, cell-based, plate reader, cherry pick (AID 743444).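 Further: transfected HEK 293 cells stimulated with alpha-MSH peptide; potency of inhibitors of the alpha-MSH evoked signal.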 The class given is functional. For orientation: A counterscreen serves to expose hits that act by an unwanted route or on another target.
The nature of assay [8]: HEK293 cell cytotoxicity, dose response, cytotoxicity control, plate reader, cherry-picked samples (AID 743446). The format is functional, cell-based.
Another assay deals with T3, Phospholipase D1 (Homo sapiens, UniProt Q13393).
T3 sequence (Q13393 whole entry): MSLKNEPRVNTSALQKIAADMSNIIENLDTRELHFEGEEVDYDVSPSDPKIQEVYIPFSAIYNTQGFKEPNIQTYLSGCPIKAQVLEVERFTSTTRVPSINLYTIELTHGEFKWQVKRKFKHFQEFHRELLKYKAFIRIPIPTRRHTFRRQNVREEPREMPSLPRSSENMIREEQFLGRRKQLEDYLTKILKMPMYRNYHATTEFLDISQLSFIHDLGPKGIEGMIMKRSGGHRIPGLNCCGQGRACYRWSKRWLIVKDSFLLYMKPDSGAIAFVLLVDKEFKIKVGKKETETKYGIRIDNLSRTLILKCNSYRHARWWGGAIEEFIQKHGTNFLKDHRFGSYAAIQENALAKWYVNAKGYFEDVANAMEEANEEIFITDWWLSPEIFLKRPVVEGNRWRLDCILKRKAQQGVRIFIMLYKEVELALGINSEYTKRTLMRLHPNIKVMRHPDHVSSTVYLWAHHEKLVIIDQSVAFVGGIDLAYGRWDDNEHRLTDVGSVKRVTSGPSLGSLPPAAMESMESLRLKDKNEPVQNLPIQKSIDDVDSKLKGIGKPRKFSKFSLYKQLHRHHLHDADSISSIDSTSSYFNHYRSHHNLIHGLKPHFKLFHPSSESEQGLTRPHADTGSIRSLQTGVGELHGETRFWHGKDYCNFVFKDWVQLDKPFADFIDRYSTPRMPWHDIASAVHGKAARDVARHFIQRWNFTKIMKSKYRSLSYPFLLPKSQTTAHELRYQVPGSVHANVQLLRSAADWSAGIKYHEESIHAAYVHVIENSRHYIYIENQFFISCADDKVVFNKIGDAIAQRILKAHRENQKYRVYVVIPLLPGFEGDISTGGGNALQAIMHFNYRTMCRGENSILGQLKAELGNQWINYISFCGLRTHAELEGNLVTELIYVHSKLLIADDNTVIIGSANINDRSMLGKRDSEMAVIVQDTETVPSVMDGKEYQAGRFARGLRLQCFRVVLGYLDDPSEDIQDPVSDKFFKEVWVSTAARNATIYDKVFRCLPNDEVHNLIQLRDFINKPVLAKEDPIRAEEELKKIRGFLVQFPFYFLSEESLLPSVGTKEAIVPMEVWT
Briefly: PLD1 inhibitor potency in cells, dose response (AID 602151).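 Further: cellular PLD1 assay in Calu-1 cells stimulated with PMA.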 The format is functional.

In a further assay the target is Phospholipase D2 (Homo sapiens, UniProt O14939). Briefly: PLD2 inhibitor potency in cells, dose response (AID 602147).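 Further: cellular assay in HEK293 cells overexpressing GFP-tagged PLD2.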 The class given is functional.
The next assay addresses Paired box protein Pax-8 (Homo sapiens, UniProt Q06710). Briefly: inhibitors of PAX8-driven TPO luciferase reporter, dose response, RMG-I cells, cherry-pick (AID 687027).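 Further: luciferase reporter driven by Pax8 target thyroperoxidase promoter measured by SteadyGlo luminescence.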 The format is functional, cell-based.
Assay [9] in a line: non-specific cell cytotoxicity, dose response, cytotoxicity control for PAX8 inhibitor project, plate reader, dry powder samples (AID 743021). The class given is functional, cell-based.
The target of the next assay is Kallikrein-7 (Homo sapiens, UniProt P49862). Briefly: Fluorescence Intensity-based biochemical primary high throughput dose response assay to identify activators of kallikrein-7 (K7) zymogen.
The nature of assay [10]: inhibitors of HIV Env-driven cell fusion, dose response, cherry-pick (AID 652057). The class given is functional, cell-based.
Assay [11] in a line: ZM109 Env clade C HIV-1 fusion inhibitors, dose response, HeLa effector, CEM target cells, luciferase, cherry-pick (AID 652058). The class given is functional, cell-based.
Assay [12] is described as follows: off-target signal loss in HeLa-CEM21 co-culture – HeLa F-luc CTL cells, cherry-picked, counter-screen for HIV-1 Env fusion inhibitor project, dose response (AID 652040).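 Further: potency for signal decrease marking cytotoxic or nonspecific inhibition.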 The class given is functional, cell-based.
Assay [13] can be described thus: inhibitors of clade B AD8 Env fusion, dose response, cell-based, cherry-pick (AID 652062).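 Further: luciferase signal from cell-cell fusion driven by HIV-1 clade B AD8 Env; potency is for inhibitors of fusion seen as a drop in luminescence.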 The format is functional.
Assay [14] in a line: NIH:OVCAR-3 ovarian cancer cell cytotoxicity, dose response, PAX8 inhibitor project, plate reader, dry powder samples (AID 743044). The format is functional, cell-based.
The next assay can be described thus: cells. The format is functional.

Our source for the AC50, IC50 and EC50 values is ChEMBL document CHEMBL1201862, “PubChem BioAssay data set” (2004).

Each structure is given as a SMILES string. The source made the active and inactive calls.

Sequence of Phospholipase D2 (O14939 whole entry): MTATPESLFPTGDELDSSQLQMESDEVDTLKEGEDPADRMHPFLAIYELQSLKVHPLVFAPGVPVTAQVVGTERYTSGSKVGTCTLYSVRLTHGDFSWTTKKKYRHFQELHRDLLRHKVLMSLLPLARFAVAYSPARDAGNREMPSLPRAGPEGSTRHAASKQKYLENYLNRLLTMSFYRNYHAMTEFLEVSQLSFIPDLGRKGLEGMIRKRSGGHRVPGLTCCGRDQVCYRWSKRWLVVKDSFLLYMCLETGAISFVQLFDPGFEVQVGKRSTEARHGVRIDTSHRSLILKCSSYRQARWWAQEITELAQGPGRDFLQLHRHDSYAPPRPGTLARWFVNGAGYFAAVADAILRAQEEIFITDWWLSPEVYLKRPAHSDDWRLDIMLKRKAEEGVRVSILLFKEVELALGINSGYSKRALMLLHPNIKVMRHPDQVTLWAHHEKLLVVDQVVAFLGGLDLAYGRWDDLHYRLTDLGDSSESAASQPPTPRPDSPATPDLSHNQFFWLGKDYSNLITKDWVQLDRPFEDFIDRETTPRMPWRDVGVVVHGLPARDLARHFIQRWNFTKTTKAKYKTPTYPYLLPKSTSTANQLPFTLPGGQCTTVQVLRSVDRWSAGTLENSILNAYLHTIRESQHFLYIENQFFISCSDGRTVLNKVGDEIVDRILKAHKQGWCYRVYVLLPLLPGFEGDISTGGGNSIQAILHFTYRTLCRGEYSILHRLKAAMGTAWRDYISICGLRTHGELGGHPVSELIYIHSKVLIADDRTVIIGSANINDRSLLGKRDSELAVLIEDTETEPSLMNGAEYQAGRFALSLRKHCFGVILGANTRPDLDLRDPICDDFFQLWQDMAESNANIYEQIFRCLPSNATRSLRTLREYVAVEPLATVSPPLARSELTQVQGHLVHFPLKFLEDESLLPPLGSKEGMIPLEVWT
Sequence of Kallikrein-7 (P49862 whole entry, the tested form may be a part): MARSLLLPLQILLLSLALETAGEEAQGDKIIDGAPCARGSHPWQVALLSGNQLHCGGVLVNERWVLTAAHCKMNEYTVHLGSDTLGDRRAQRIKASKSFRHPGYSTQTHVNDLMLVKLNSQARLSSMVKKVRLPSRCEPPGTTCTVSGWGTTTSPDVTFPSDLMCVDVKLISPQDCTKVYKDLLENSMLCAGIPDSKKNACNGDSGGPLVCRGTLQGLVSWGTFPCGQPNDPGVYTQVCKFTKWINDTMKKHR
Sequence of Paired box protein Pax-8 (Q06710 whole entry): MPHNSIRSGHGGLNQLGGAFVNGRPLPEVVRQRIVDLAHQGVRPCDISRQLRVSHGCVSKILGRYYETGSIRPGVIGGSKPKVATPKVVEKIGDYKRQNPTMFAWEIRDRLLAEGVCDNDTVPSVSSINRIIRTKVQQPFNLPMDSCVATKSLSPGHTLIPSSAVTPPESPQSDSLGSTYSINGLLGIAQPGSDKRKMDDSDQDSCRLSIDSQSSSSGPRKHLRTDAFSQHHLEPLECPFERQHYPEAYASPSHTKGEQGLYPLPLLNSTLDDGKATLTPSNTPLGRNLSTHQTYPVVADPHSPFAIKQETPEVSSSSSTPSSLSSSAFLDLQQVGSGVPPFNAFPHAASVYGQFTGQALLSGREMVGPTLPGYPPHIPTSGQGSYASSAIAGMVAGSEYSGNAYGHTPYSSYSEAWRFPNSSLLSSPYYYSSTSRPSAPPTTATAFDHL

A word on the AC50: it is the concentration at which the activity in the assay is half-maximal. As to `CC(C)(C)[S+]([O-])N1Cc2cc(C(=O)NCc3ccc4c(c3)OCO4)nc(-c3cccc(-c4cccc(F)c4)c3)c2[C@@H]1CCO` (stereo partly specified), the AC50 in assay [1] was 1.74 µM (active).
For the compound `CCNCCNc1ccc([N+](=O)[O-])c2cccnc12`, the figures for the AC50 in assay [2] and in assay [3] were 29.7 µM (active) and 13.6 µM (active), respectively.
`Cc1cccc(N2CCN(C(=O)C3CCN(c4ncnc5c4nc4n5CCCCC4)CC3)CC2)c1C`: the AC50 is 35 µM (active) in assay [4]; 34.2 µM (active) in assay [5]; 31.3 µM (active) in assay [6]; 35.8 µM (active) in assay [7]; 27.1 µM (active) in [8].
A word on the IC50: it is the concentration at which inhibition is half-maximal. Regarding `CC(C)[C@@H](CN1CCC2(CC1)C(=O)NCN2c1ccccc1)NC(=O)c1cc2ccccc2[nH]1`, the IC50 on Phospholipase D1 is 7 nM (active); on Phospholipase D2, 29 nM (active).
Turning to `C[C@@H]1CN([C@H](C)CO)C(=O)c2cc(NS(=O)(=O)c3ccc(Cl)cc3)ccc2O[C@@H](C)CCCCO[C@@H]1CN(C)Cc1ccccc1`, the AC50 at Paired box protein Pax-8 is 4.7 µM (active); in [9], 43 µM (active).
As usually defined, the EC50 is the midpoint of the concentration-response curve. With `O=C(O)CCc1nn2c3ccccc3nc2n(CCN2CCCCC2)c1=O`, the EC50 on Kallikrein-7 was 34.8 µM (inactive).
Same read-out and setting: next, `COC(=O)c1cc(-c2ccc(OC)cc2)nc2nc(SC)[nH]c(=O)c12`: 48 µM (inactive).
For the compound `CCN1C(=O)[C@H]2[C@@H](c3ccc(C)cc3)N3C(=O)N(c4ccc(C(F)(F)F)cc4)C(=O)[C@@]3(CC(C)C)[C@H]2C1=O`, the AC50 was 2 µM (active) in [10], 3.63 µM (active) in [11], 2.35 µM (active) in assay [12] and 4.99 µM (active) in assay [13].
Consider `CC(C)CC#Cc1ccc2c(c1)O[C@H](CN(C)Cc1ccc(C(=O)O)cc1)[C@@H](C)CN([C@H](C)CO)S2(=O)=O`, for which the figures for the AC50 (on Paired box protein Pax-8; in assay [14]; in assay [9]) were 19.3 µM (active), 57.2 µM (active) and 48 µM (active), respectively.
For `C[C@@H](CN1CCC(n2c(=O)[nH]c3ccccc32)CC1)NC(=O)c1cccnc1`, the IC50 is 85 nM (active) at Phospholipase D1 and 14000 nM (active) on Phospholipase D2.
The matching figures for `C[C@@H](CN1CCC2(CC1)C(=O)NCN2c1ccc(F)c(F)c1)NC(=O)c1cnc2ccccc2c1`: 16 nM (active) and 76 nM (active).
Turning to `O=C(COc1ccc2c(c1)CCC2)Nc1ccccn1`, the IC50 in “cells” was 39.2 µM (active). In addition, the AC50 in assay [4] was 45.3 µM (active); in [6], 7.18 µM (active); in assay [7] it was 6.74 µM (active); in assay [8], 33.3 µM (active).
`CC1CC(C)CN(C(=O)c2cc3c(=O)n4ccccc4nc3s2)C1` (stereo unspecified): the EC50 on Kallikrein-7 was > 69.5 µM (inactive).
Regarding `COCCn1c(=S)[nH]c2cc(C(=O)N3CCN(Cc4ccc5c(c4)OCO5)CC3)ccc2c1=O`, the values for the concentration at half-maximal activity (AC50) in [10], in assay [12] and in assay [13] were 29.3 µM (active), 60.2 µM (active) and 44.6 µM (active), respectively.
As to `O=C(NCCN1CCC(n2c(=O)[nH]c3cc(I)ccc32)CC1)C1CC1c1ccccc1` (stereo unspecified), the IC50 on Phospholipase D1 is 9 nM (active); at Phospholipase D2, 345 nM (active).
Consider `COc1cc2c(c(OC)c1OC)[C@@]1(c3ccccc3)CCCC[C@H]1[C@@H]2NC(=O)C(F)(F)F`, for which the AC50 in assay [10] was 6.21 µM (active); in [11], 7.65 µM (active); in assay [12], 5.7 µM (active).
`CN(C)C(=O)c1cccc(-c2ccc([C@@H]3[C@H](CO)N4CCCCN(C(=O)C5CCC5)C[C@@H]34)cc2)c1`: in assay [1], the AC50 was 4.83 µM (active).
As to `COc1c(N2CCN(C(=S)Nc3ccccc3F)C(C)C2)c(F)cc2c(=O)c(C(=O)O)cn(C3CC3)c12` (stereo unspecified), the EC50 at Kallikrein-7 is > 69.5 µM (inactive).
